Measurements from US5583138A, “17β-substituted 4-azaandrostane derivatives, pharmaceutical compositions containing them and process for preparing same” (Richter Gedeon Vegyeszeti Gyar Rt., priority 1992, dated 1996).
pIC50: −log10 of the molar value.

Target: T1, steroid 5α-reductase enzyme (Homo sapiens, UniProt P31213)
T1 construct: Frozen human hyperplastic prostate was used for preparation of the enzyme; from tissue; host or cells: human hyperplastic prostate (frozen), sediment of 100000×g ultracentrifugation
T1 sequence (P31213 1-254): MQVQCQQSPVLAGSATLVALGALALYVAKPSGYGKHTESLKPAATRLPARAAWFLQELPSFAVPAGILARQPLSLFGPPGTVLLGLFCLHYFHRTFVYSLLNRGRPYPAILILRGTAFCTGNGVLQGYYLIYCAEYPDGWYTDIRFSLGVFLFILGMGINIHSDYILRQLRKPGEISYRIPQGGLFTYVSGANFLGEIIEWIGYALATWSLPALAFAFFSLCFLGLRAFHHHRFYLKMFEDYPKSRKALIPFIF
Test: 5α-reductase inhibition: conversion of [3H]-testosterone to DHT and androstanediol by enzyme from human hyperplastic prostate
Assay type: biochemical
Conditions: 0.5 μM [3H]-testosterone, 500 μM NADPH, pH=5.1, 37° C., 10 minutes, read-out: IC50 (concentration decreasing the percentage conversion of testosterone by 50% in comparison to the control value)

C[C@]12C=CC(=O)N[C@@H]1CC[C@@H]1[C@@H]2CC[C@]2(C)[C@@H](C(=O)N3CCCCCCC3)CC[C@@H]12 [17β-(heptamethyleneiminocarbonyl)-3-oxo-4-aza-5α-androst-1-ene]
pIC50: 8.06

C[C@]12C=CC(=O)N[C@@H]1CC[C@@H]1[C@@H]2CC[C@]2(C)[C@@H](C(=O)N3CCCCCC3)CC[C@@H]12 [17β-(hexamethyleneiminocarbonyl)-3-oxo-4-aza-5α-androst-1-ene]
pIC50: 7.88

CC(C)(C)NC(=O)[C@H]1CC[C@H]2[C@@H]3CC[C@H]4NC(=O)C=C[C@]4(C)[C@H]3CC[C@]12C [MK-906, 17β-[N-(1,1-Dimethylethyl)carbamoyl]-3-oxo-4-aza-5α-androst-1-ene, reference compound]
pIC50: 7.74

CC1CCCC(C)N1C(=O)[C@H]1CC[C@H]2[C@@H]3CC[C@H]4NC(=O)C=C[C@]4(C)[C@H]3CC[C@]12C (stereo partly drawn) [17β-(2,6-dimethylpiperidinocarbonyl)-3-oxo-4-aza-5α-androst-1-ene]
pIC50: 8.07
